Assay results as given in patent US10842776B2, “Hycanthone derivatives and Primaquine derivatives for use in the prevention and/or the treatment of disorders associated to gammaherpesvirus” (priority 2016, dated 2020).
Structures can show the parent of a compound that is named as a salt.

Assays:
[1] = test system: caspase 3/7 activity in BC-3 cells; assay: Induction of caspase 3/7 activity (apoptosis); format: cell-based, human; settings: 10 μM, 24 h
Procedure: Apoptosis induction was evaluated 24 h after the treatment started by measuring caspase 3/7 activity in treated- or untreated control BC-3 cells. […] DDTC is used as a positive inducer of caspase 3/7 activity in BC-3 cell lines (Matsuno et al., 2012, Int J Oncol 40: 1071-1078).
BC-3 cells (10000 cells/well) were incubated 24 h with a concentration of 10 μM of Primaquine diphosphate (Sigma), Hycanthone (Sigma), or Diethyldithiocarbamate (DDTC) (Sigma), and then lysed and a 3/7 Reagent (DEVD) is added. Lysed cells release caspase-3 or -7, which cleave the DEVD substrate from the aminoluciferin. Finally, the oxidation of the luciferin by luciferase produces light, which is measured by a luminometer. The amount of light produced is proportional to the amount of caspase-3 or -7 activity. […] (DDTC) (Sigma) known to induce apoptosis in BC-3 cells via the inhibition of NF-κB is used as positive control.

BC-3 cells = assay: Cell growth inhibition; format: cell-based, human; settings: 10 μM, D0 to D3, versus BC3 cells cultured in standard conditions
Procedure: Cell growth was measured every day from the day of treatment (DO) until 3 days after the treatment started (D3).
BC-3 cells were grown in RPMI-1640 GlutaMAX (Gibco) supplemented with 10% fetal bovine serum and antibiotics (amikacine and vancomycine) during 3 days. The number of cells per milliliter is measured at baseline, DO, D2 and D3. BC-3 were cultured with and without primaquine and Hycanthone.

[2] = test system: MRC-5, primary cutaneous fibroblasts, primary keratinocytes, Hela P4; settings: human, 48 h, 10 μM
Procedure: (§1) HHV8 infected cell line (BC3), HHV8-non infected cell lines (MRC5, HeLa P4), and HHV8 non infected primary cells (human keratinocytes, human cutaneous fibroblasts, B-type lymphocytes CD19+) were grown in vitro and treated by either Primaquine diphosphate, Hycanthone, Paclitaxel or Doxorubicin hydrochloride at a concentration of 10 μM. Cell viability was evaluated by ATP quantitation 48 h after the treatment started.
(§2) The effect of Primaquine diphosphate (Sigma), Hycanthone (Sigma), Paclitaxel (Sigma), and Doxorubicin (Sigma) were evaluated on relevant primary cells and cell lines that are or not infected by HHV-8.
• BC-3: cell line established from pleural effusion from a human immunodeficiency virus (HIV) negative patient diagnosed with primary effusion lymphoma (PEL). BC-3 cell line is HHV8 infected but not infected for Epstein-Barr virus (EBV) as well as for herpes simplex virus 1 &2 (HSV-1 & HSV-2) and cytomegalovirus (CMV) (ATCC), • MRC5: Cell line derived from normal lung tissue of a […] fetus (ATCC), • Primary cutaneous fibroblasts (Lonza ref CC 25 11), • Primary keratinocytes (Lonza ref 00 192 627), • HeLa: immortal cell line established from an adult human cervical cancer HVP-18 infected (NIH Reagent program), • Primary B-type lymphocytes CD19+: primary B cells positively selected using CD19 microbeads (Miltenyi).
(§3) Cells were treated in vitro with either Primaquine diphosphate (Sigma), Hycanthone (Sigma), Paclitaxel (Sigma), or Doxorubicin hydrochloride (Sigma) at a concentration of 10 μM. The viability of the cells was evaluated 48 h after the treatment started as previously described with the Kit CellTiter Glo (Promega).

[3] = test system: phosphorylation of IκB (NF-κB pathway) in BC-3 PEL cell line; assay: IκB phosphorylation, western blot; format: cell-based, human; settings: 10 μM, pre-treated for 6 and 12 h, BC-3 cells
Procedure: BC-3 cells were pre-treated for 6 h (A) and 12 h (B) with primaquine and hycanthone at 10 μM. DDTC was used as positive control. Whole-cell lysates were prepared as described in Materials and Methods of example F and used for p-IκB western blot analysis by using the appropriate antibodies. […] Treatment of BC-3 cells with DDTC (diethyldithiocarbamate) was carried out in the same conditions and served as a positive control.
BC-3, an HHV-8 positive lymphoblastic cell line (ATCC CRL-2277) and RAMOS, an human Burkitt's lymphoma cell line (ATCC CRL-1596), were routinely maintained in RPMI 1640 medium supplemented with 10% fetal heat-inactivated bovine serum (FBS), and antibiotics (Sigma Chemical Co., St. Louis, Mo.) in a 5% CO2 incubator at 37° C. To prepare whole cell extracts, the cells were washed with cold phosphate-buffered saline twice and lysed in lysis RIPA buffer containing 10 mM Tris-HCl, pH 8.0, 140 mM NaCl, 1% Triton X-100, 1 mM EDTA, 0.5 mM EGTA, 0.1% sodium deoxycholate, 0.1% SDS, supplemented with protease inhibitor mixture (1 mM PMSF, 10 mM β-glycerophosphate, 10 mM NaF, 1 mM sodium orthovanadate, 1 mM sodium pyrophosphate), (ThermoFisher Scientific) at 4° C. for 30 min. […] The supernatants were collected as whole cell extracts, and protein concentration was determined by the Lowry method. […]

[4] = test system: BC-3 cells (HHV8 infected PEL cell line); assay: Cell viability (ATP quantitation, CellTiter Glo) of HHV8-infected cells; format: cell-based, human; settings: 10 μM, 48 h, HHV8 infected BC-3 cells
Procedure: as §1, §2
• BC-3: cell line established from pleural effusion from a human immunodeficiency virus (HIV) negative patient diagnosed with primary effusion lymphoma (PEL). […]
as §3

[5] = Toxicity of Primaquine in NOD/SCID mice; format: in vivo; settings: 12.5 mg/kg, after 24 days of treatment
Procedure: (§4) Primaquine efficacy was evaluated using a mice model of immunodeficient NOD/SCID mice. […] Mice weight was measured at various times (D6, D13, D20 and D24) after the treatment started.
The experiment was conducted on 24 NOD/SCID mice (4 groups of 6 mice) (Charles River laboratories): 1 group (Mock) without xenograft (no BC-3) and non-treated (no Primaquine), 1 group with xenograft (BC-3) and non-treated (no Primaquine), 1 group with xenograft (BC-3) and treated (Primaquine 12.5 mg/kg; (Sigma), 1 group without xenograft and treated (Primaquine 12.5 mg/kg; (Sigma).
At the beginning of the experiments, the mice were 6 weeks old according to previous experiments conducted and available in the literature. Animals had 7 to 10 days of acclimatization before experiment. At baseline, 20.10^6 of BC3 cells in 500 μL of PBS were injected by i.p. in order to induce the development of PEL. Tumor growth is correlated with the total gain of weight. The consequent gain of weight should not exceed 150% of the baseline weight. For the group of mice […] by Primaquine, each mice received 1 i.p injection of 500 μL of PBS instead of BC-3 cells in order to evaluate the toxicity of Primaquine in mice.

BC-3 xenograft (PEL) = assay: Primary Effusion Lymphoma xenograft model in immunodeficient NOD/SCID mice; format: in vivo
Procedure: as §4
Note the large growth tumor in the abdomen of the mouse that received BC-3 xenograft (“BC-3”) but not treated by primaquine.
At baseline, mice are inoculated with a PEL cell line (BC-3) by intraperitoneal (i.p) injection. One day after injection of BC-3 cells, Primaquine is administered by intraperitoneal injection, and then 3 times a week during 8 weeks. Tumoral burden is evaluated by the measure of weight every weeks (References: T. Matsuno, 2012: Diethyldithiocarbamate induces apoptosis in HHV-8-infected primary effusion lymphoma cells via inhibition of the NF-κB pathway; K. A. Sarosiek, 2010: Efficacy of bortezomib in a direct xenograft model of primary effusion lymphoma; W. Wu, 2005: Inhibition of HHV-8/KSHV infected primary effusion lymphomas in NOD/SCID mice by azidothymidine and interferon).
The experiment was conducted on 24 NOD/SCID mice (4 groups of 6 mice) (Charles River laboratories): 1 group (Mock) without xenograft (no BC-3) and non-treated (no Primaquine), 1 group with xenograft (BC-3) and non-treated (no Primaquine), 1 group with xenograft (BC-3) and treated (Primaquine 12.5 mg/kg; (Sigma), 1 group without xenograft and treated (Primaquine 12.5 mg/kg; (Sigma). […]

## CCN(CC)C(=S)S [DDTC, Diethyldithiocarbamate]
[1]
  apoptosis (caspases 3/7 activation) versus non-treated control: 4 times

## CCN(CC)CCNc1ccc(CO)c2sc3ccccc3c(=O)c12 [Hycanthone]
BC-3 cells
  cellular growth of BC3: inhibited cellular growth
[1]
  apoptosis (caspases 3/7 activation) versus non-treated control: at least as equivalent of that induced by DDTC
[2]
  toxicity (cell death) in other cell types non infected by HHV8: < 20%
[3]
  phosphorylation of IκB: dramatically reduced

## CC(=O)O[C@H]1C(=O)[C@@]2(C)[C@H]([C@H](OC(=O)c3ccccc3)[C@]3(O)C[C@H](OC(=O)[C@H](O)[C@@H](NC(=O)c4ccccc4)c4ccccc4)C(C)=C1C3(C)C)[C@]1(OC(C)=O)CO[C@@H]1C[C@@H]2O [Paclitaxel]
[2]
  toxicity (cell death) in other cell types non infected by HHV8: > 20%
[4]
  cell death in BC-3 cells: induced cell death

## COc1cc(NC(C)CCCN)c2ncccc2c1 (stereo not drawn) [Primaquine diphosphate, Primaquine]
[5]
  toxicity in mice: did not show any toxicity
BC-3 cells
  cellular growth of BC3: inhibited cellular growth
[1]
  apoptosis (caspases 3/7 activation) versus non-treated control: at least as equivalent of that induced by DDTC
BC-3 xenograft (PEL); 12.5 mg/kg i.p. 3 times a week, D24, versus untreated mice with BC-3 xenograft
  reduction of the median gain of weight: 39.4%
BC-3 xenograft (PEL); 12.5 mg/kg, after 24 days of treatment, picture versus untreated BC-3 mouse
  growth tumor in the abdomen: reduced growth tumor
[3]
  phosphorylation of IκB: dramatically reduced

## COc1cccc2c1C(=O)c1c(O)c3c(c(O)c1C2=O)C[C@@](O)(C(=O)CO)C[C@@H]3O[C@H]1C[C@H](N)[C@H](O)[C@H](C)O1 [doxorubicin, Doxorubicin hydrochloride]
[2]
  toxicity (cell death) in other cell types non infected by HHV8: > 20%
[4]
  cell death in BC-3 cells: induced cell death
